{"source": "patent US10493102B2", "about": "“Methods of inhibiting the virulence of a pathogen with an oxidized tannin to treat a gastrointestinal spasm” (priority 2012, dated 2019)", "key": {"[1]": {"system": "E. coli", "experiment": "Stability of hydrogen peroxide (bound vs free) in aqueous solution challenged with E. coli", "format": "physicochemical", "source_text": "This method tests the stability of the hydrogen peroxide in the combination. The testing methods used follow the standard procedures set-forth by the Clinical and Laboratory Standards Institute (CLSI) and US Pharmacopeia. • i. E. coli was chosen as the bacteria to challenge the stability of the bound compositions and the free hydrogen peroxide. • ii. The hydrogen peroxide concentration was matched to the selected bacteria in order to form a useful curve representing hydrogen peroxide degradation over time for the samples. As such, the hydrogen peroxide was varied from 62.5 ppm to 500 ppm on a fixed E. coli concentration of 10^6 CFU/ml, and a concentration of 125 ppm was chosen as the initial hydrogen peroxide level used to challenge the E. coli over time. • iii. A ratio of 1:1 of the hydrogen peroxide to each of the model compounds and plant extracts was used to form each bound composition, such that 125 ppm of each plant extract was combined with the 125 ppm of the hydrogen peroxide, • iv. The free hydrogen peroxide was added at a concentration of 125 ppm as a control to show the relative stability of the hydrogen peroxide alone in the aqueous solution as compared to the bound compositions.\nFIG. 2A compares stabilities of free hydrogen peroxide to hydrogen peroxide bound to each of: gallic acid (a model polyphenol building block), tannic acid (a model polyphenol), pomegranate husk extract, green tea extract, and Blessed thistle extract. […] In both FIGS. 2A and 2B, there are curves that cannot be identified well individually, as they are identical and overlapping. […]"}, "[2]": {"experiment": "Amount of hydrogen peroxide that remains bound to the polyphenol in dry form", "format": "physicochemical", "details": "dry form redissolved in water; WATERWORKS peroxide test strip", "source_text": "Art-recognized procedures, such as those set-forth at least in U.S. Pat. Nos. 3,860,694; 3,864,454; 4,171,280; and 4,966,762, were used as a guide for this study.\nAs discussed, one of skill will appreciate that hydrogen peroxide in a free form, for example, would otherwise quickly degrade. The polyphenols were provided from model compounds or plant extracts. A dry form of the compositions was made between (i) gallic acid (a model polyphenol building block from Sigma-Aldrich) and hydrogen peroxide; (ii) tannic acid (a model polyphenol component from Sigma-Aldrich) and hydrogen peroxide; (iii) pomegranate husk extract and hydrogen peroxide; and, (iv) green tea extract and hydrogen peroxide; using the procedures taught herein, including: • i. adding a solution of 35% hydrogen peroxide slowly into each of the gallic acid powder, tannic powder, pomegranate husk extract powder; or green tea extract powder. […]"}, "[3]": {"system": "IBS patients, abdominal pain", "details": "other studies; cited from earlier work"}}}
{"smiles": "OO", "note": "[H2O2, hydrogen peroxide]", "values": [{"measurement": "hydrogen peroxide level, Hours 0", "setting": "[1]; 0 h (initial level), 1:1 extract:H2O2, 125 ppm each, E. coli 10^6 CFU/ml", "value": 125, "unit": "ppm"}, {"measurement": "hydrogen peroxide level, Hours 4", "setting": "[1]; 4 h, 1:1 extract:H2O2, E. coli 10^6 CFU/ml", "value": 15, "unit": "ppm"}, {"measurement": "hydrogen peroxide level, Hours 8", "setting": "[1]; 8 h, 1:1 extract:H2O2, E. coli 10^6 CFU/ml", "value": 0, "unit": "ppm"}, {"measurement": "hydrogen peroxide level, Hours 12", "setting": "[1]; 12 h, 1:1 extract:H2O2, E. coli 10^6 CFU/ml", "value": 0, "unit": "ppm"}, {"measurement": "hydrogen peroxide level, Hours 16", "setting": "[1]; 16 h, 1:1 extract:H2O2, E. coli 10^6 CFU/ml", "value": 0, "unit": "ppm"}, {"measurement": "hydrogen peroxide level, Hours 20", "setting": "[1]; 20 h, 1:1 extract:H2O2, E. coli 10^6 CFU/ml", "value": 0, "unit": "ppm"}, {"measurement": "hydrogen peroxide level, Hours 24", "setting": "[1]; 24 h, 1:1 extract:H2O2, E. coli 10^6 CFU/ml", "value": 0, "unit": "ppm"}, {"measurement": "hydrogen peroxide level after degradation", "setting": "[1]; within about the first 8 hours", "value": "~0.0", "unit": "ppm"}]}
{"smiles": "O=C(O)c1cc(O)c(O)c(O)c1", "note": "[gallic acid]", "values": [{"measurement": "hydrogen peroxide bound by total dry wt", "setting": "[2]", "value": "about 3.0%"}]}
{"smiles": "CN(C)C(=O)C(CCN1CCC(O)(c2ccc(Cl)cc2)CC1)(c1ccccc1)c1ccccc1", "note": "[loperamide]", "values": [{"measurement": "effect on abdominal pain symptoms compared with placebo", "setting": "[3]", "value": "no different from placebo"}]}
{"smiles": "O=C(OC[C@H]1O[C@@H](OC(=O)c2cc(O)c(O)c(OC(=O)c3cc(O)c(O)c(O)c3)c2)[C@H](OC(=O)c2cc(O)c(O)c(OC(=O)c3cc(O)c(O)c(O)c3)c2)[C@@H](OC(=O)c2cc(O)c(O)c(OC(=O)c3cc(O)c(O)c(O)c3)c2)[C@@H]1OC(=O)c1cc(O)c(O)c(OC(=O)c2cc(O)c(O)c(O)c2)c1)c1cc(O)c(O)c(OC(=O)c2cc(O)c(O)c(O)c2)c1", "note": "[tannic acid]", "values": [{"measurement": "hydrogen peroxide bound by total dry wt", "setting": "[2]", "value": "about 2.5%"}]}
